Measurements from PMC5259778, “Candidate pheromone receptors of codling moth Cydia pomonella respond to pheromones and kairomones” (Scientific Reports, 2017).
Values after ≈ are worked out from the molar mass of the structure shown.

Key:
[1] = ref Scifinder, 2015; Chemspider; cited from earlier work
CpomOR1 = test: Single sensillum recordings, CpomOR1 expressed in Drosophila at1 OSNs; type: cell-based, Cydia pomonella; conditions: 10 μg per stimulus
Text: To perform heterologous expression in D. melanogaster OSNs, CpomORs were amplified using primers in Table 2 and purified PCR products were cloned into the PCR8/GW/TOPO plasmid (Invitrogen) following the recommended protocol. Cassettes with inserts were then transferred from their PCR8/GW/TOPO plasmids to the destination vector (pUASg-HA.attB, constructed by E. Furger and J. Bischof, kindly provided by the Basler group, Zürich), using the Gateway LR Clonase II kit (Invitrogen). The integrity and orientation of inserts was confirmed by sequencing (Sanger sequencer, 3730xl). Transformant UAS-CpomOR3 and UAS-CpomOR1 lines were generated by Best Gene (Chino Hills, CA, USA), using the PhiC31 integrase system, while the transformant UAS-CpomOR6a line was generated in our labs. Briefly, recombinant pUASg-HA.attB-CpomOR plasmids were injected into embryos of a D. melanogaster line containing an attP insertion site within the third chromosome (genotype y1 M{vas-int.Dm}ZH-2A w*; M{3xP3-RFP.attP}ZH-86Fb), leading to non-random integration. To drive expression of CpomORs in at1 OSNs in place of the endogenous receptor Or67d, transformant UAS-CpomOR lines were crossed to the knock-in Or67d^GAL4 line (kindly provided by Barry Dickson) to generate double homozygous lines w^+;UAS-CpomOR; Or67d^GAL4. Additionally, to drive expression of CpomOR3 in ab3A OSNs, the UAS-CpomOR3 line was crossed to the Δhalo;Or22a-Gal4 mutant line[20][57]. To verify insertion of UAS-CpomORs constructs into the genome, gDNA was extracted and used as template in PCR with primers for the full ORF of CpomORs (Table 2).
CpomOR1 and CpomOR6a expressed in at1 OSNs, and CpomOR3 expressed in ab3A OSNs, were tested through single sensillum recordings (SSR). Three to 8-day-old flies were immobilized in 100 μL pipette tips with only the top half of the head protruding. The left antenna of each insect was gently pushed with a glass capillary against a double-sided adhesive tape placed on a piece of glass. This piece of glass and the pipette tip were fixed with dental wax on a microscope slide. Electrolytically sharpened tungsten electrodes (Harvard Apparatus Ltd, Edenbridge, United Kingdom) were used to penetrate the insect´s body. The reference electrode was manually inserted in the right eye of the fly, while the recording electrode was manoeuvred with a DC-3K micromanipulator equipped with a PM-10 piezo translator (Märzhäuser Wetzler GmbH, Wetzler, Germany) and inserted at the base of the determined sensilla. Signals coming from the olfactory sensory neurons were amplified 10 times with a probe (INR-02, Syntech, Hilversum, the Netherlands), digitally converted through an IDAC-4-USB (Syntech) interface, and visualized and analysed with the software Autospike v. 3.4 (Syntech). A constant flow of 0.65 m/s of humidified air (charcoal-filtered) was delivered through a glass tube to the antenna. The panel of odorants was given to the insect by inserting pipettes containing a piece of filter paper with the correspondent stimulus in a lateral hole of the glass tube and puffing a flow of 2.5 mL of air during 0.5 s through the pipette. For CpomOR1 and CpomOR6a the panel of odorants was prepared by applying 10 μL of a solution of 1.0 μg/μL of the compounds in Supplementary Dataset S2 and Supplementary Dataset S3, for a total amount of 10 μg per stimulus. In the case of CpomOR3, a similar dilution process was used for the dose response experiments of ethyl-(E,Z)-2,4-decadienoate and methyl-(E,Z)-2,4-decadienoate, as well for dose response of experiments of codlemone acetate in CpomOR6a. Compounds were diluted from concentrations ranging from 0.01 ng/μL to 10 μg/μL in decadic steps, allowing reaching concentrations from 100 pg to 100 μg per stimulus when 10 μL of the dilution was applied in the piece of filter paper. […]

CC(C)=CCC/C(C)=C/CO [geraniol]
LogP [1]: 2.942±0.271

COCc1ccccc1 [benzyl methyl ether]
LogP [1]: 1.843±0.239 | Solubility (M) [1]: 0,05 M

C/C=C/c1ccc(OC)c(OC)c1 [methyl-iso-eugenol]
LogP [1]: 3.049±0.239 | Solubility [1]: 3.6 mM (≈ 642 µg/mL)

CCC/C=C/C=O [trans-2-hexenal]
LogP [1]: 1.790±0.281

O=C1CCCCC1 [cyclohexanone]
LogP [1]: 0.821±0.251 | Solubility [1]: 150 mM (≈ 14700 µg/mL)

CCCCC(=O)OC [methyl valerate]
LogP [1]: 1.804±0.205

C/C=C\C=C/CCCCCCCO [(Z8,Z10)-12:OH]
Spikes/s (CpomOR1; replicate 1): -2 Spikes/s | Spikes/s (CpomOR1; replicate 2): 0 Spikes/s | Spikes/s (CpomOR1; replicate 3): 0 Spikes/s | Spikes/s (CpomOR1; replicate 4): 4 Spikes/s | Spikes/s (CpomOR1; replicate 5): 12 Spikes/s

CCC/C=C/C=O [(E)-2-hexenal]
LogP [1]: 1.790±0.281 | Solubility (M) [1]: 0,09 M

CC(C)CCC(=O)c1ccoc1 [3-(4-methyl-1-oxopentyl)furan-]
LogP [1]: 2.851 ± 0.318 | Solubility [1]: 2.1 mM (≈ 349 µg/mL)

C=CCc1ccc(OC)cc1 [4-Allylanisole]
LogP [1]: 3.088±0.223

CC(C)CCO [3-methyl-1-butanol]
LogP [1]: 1.192±0.187 | Solubility (M) [1]: 0,34 M

C/C=C/CCCCCCCCCO [(E10)-12:OH]
Spikes/s (CpomOR1; replicate 1): -2 Spikes/s | Spikes/s (CpomOR1; replicate 2): -2 Spikes/s | Spikes/s (CpomOR1; replicate 3): 0 Spikes/s | Spikes/s (CpomOR1; replicate 4): -4 Spikes/s | Spikes/s (CpomOR1; replicate 5): 2 Spikes/s

CC(C)c1ccc(O)cc1 [4-isopropyl phenol]
LogP [1]: 2.986±0.200 | Solubility (M) [1]: 0,015 M

CC/C=C\CCO [(Z)-3-hexenol]
Solubility [1]: 140 mM (≈ 14000 µg/mL)

CC(=O)CCC=C(C)C [6-methyl-5-hepten-2-one]
LogP [1]: 1.947±0.238 | Solubility [1]: 52 mM (≈ 6560 µg/mL)

C=C/C=C(\C)CCC=C(C)C [4,8-Dimethyl-1,(E)-3,7-nonatriene]
Spikes/s (CpomOR1; replicate 1): 2 Spikes/s | Spikes/s (CpomOR1; replicate 2): -6 Spikes/s | Spikes/s (CpomOR1; replicate 3): 2 Spikes/s | Spikes/s (CpomOR1; replicate 4): 4 Spikes/s | Spikes/s (CpomOR1; replicate 5): -8 Spikes/s

O=CCc1ccccc1 [phenyl acetaldehyde]
LogP [1]: 1.760±0.224 | Solubility (M) [1]: 0,016 M

CCCCCO [1-pentanol]
LogP [1]: 1.348±0.176 | Solubility (M) [1]: 0,24 M

CCCCCCCCO [1-octanol]
LogP [1]: 2.876±0.177

CCCCCCCOC(=O)CCC [heptyl butyrate]
LogP [1]: 4.352±0.206

O=Cc1ccc2c(c1)OCO2 [heliotropin]
LogP [1]: 1.050±0.302

CC(C)(C)c1ccc(CCC=O)cc1 [bourgeonal]
LogP [1]: 3.486±0.245 | Solubility (M) [1]: 4,50E-04 M

C/C=C\C/C=C/CCCCCCCCOC(C)=O [(Z9,E12)-14:Ac]
Spikes/s (CpomOR1; replicate 1): 2 Spikes/s | Spikes/s (CpomOR1; replicate 2): -4 Spikes/s | Spikes/s (CpomOR1; replicate 3): 2 Spikes/s | Spikes/s (CpomOR1; replicate 4): -10 Spikes/s | Spikes/s (CpomOR1; replicate 5): 0 Spikes/s

C/C=C/c1ccc2c(c1)OCO2 [isosafrol]
LogP [1]: 3.904±0.349 | Solubility (M) [1]: 5,90E-04 M

CCC/C=C/CCCCCCCO [(E8)-12:OH]
Spikes/s (CpomOR1; replicate 1): -2 Spikes/s | Spikes/s (CpomOR1; replicate 2): 4 Spikes/s | Spikes/s (CpomOR1; replicate 3): 0 Spikes/s | Spikes/s (CpomOR1; replicate 4): 0 Spikes/s | Spikes/s (CpomOR1; replicate 5): 2 Spikes/s

C/C1=C\CC/C(C)=C/CC(C)(C)/C=C/C1 [α-humulene]
LogP [1]: 6.592±0.249 | Solubility (M) [1]: 1,10E-08 M

NCCc1ccccc1 [phenylethylamine]
LogP [1]: 1.435±0.189 | Solubility (M) [1]: 0,085 M

CC/C=C/CCCCCCCCO [(E9)-12:OH]
Spikes/s (CpomOR1; replicate 1): -4 Spikes/s | Spikes/s (CpomOR1; replicate 2): 0 Spikes/s | Spikes/s (CpomOR1; replicate 3): 2 Spikes/s | Spikes/s (CpomOR1; replicate 4): 4 Spikes/s | Spikes/s (CpomOR1; replicate 5): -2 Spikes/s

CCC(C)CO (stereo not shown) [2-methyl-1-butanol]
LogP [1]: 1.192±0.187

COc1cc(C=O)ccc1O [vanillin]
Solubility (M) [1]: 0,024 M

CC(=O)OCC=C(C)C [prenyl acetate]
LogP [1]: 2.017±0.274 | Solubility (M) [1]: 0,069 M

CCCc1ccc(O)c(OC)c1 [dihydro eugenol, 2-methoxy-4-propylphenol]
LogP [1]: 2.943±0.224 | Solubility (M) [1]: 6,00E-03 M

C=CCc1ccc(OC)c(OC)c1 [methyl eugenol]
LogP [1]: 2.655±0.243

C=C/C(C)=C/CC=C(C)C [(E)-β-ocimene]
Spikes/s (CpomOR1; replicate 1): 2 Spikes/s | Spikes/s (CpomOR1; replicate 2): 8 Spikes/s | Spikes/s (CpomOR1; replicate 3): 0 Spikes/s | Spikes/s (CpomOR1; replicate 4): 2 Spikes/s | Spikes/s (CpomOR1; replicate 5): 4 Spikes/s

COC(=O)c1ccccc1 [methyl benzoate]
Solubility (M) [1]: 0,02 M

C=C(C)[C@@H]1CCC2=CC(=O)C[C@@H](C)[C@]2(C)C1 [(+)-nootkatone]
LogP [1]: 3.765±0.275 | Solubility (M) [1]: 2,40E-04 M

C=C(C)C1CC=C(C=O)CC1 (stereo not shown) [1,8-p-menthadien-7-al (perillaldehyde), 1,8-p-menthadien-7-al]
LogP [1]: 3.053 ± 0.335 | Solubility [1]: 6.1 mM (≈ 916 µg/mL)

CCCCCCCCCCCCO [1-dodecanol]
Spikes/s (CpomOR1; replicate 1): -2 Spikes/s | Spikes/s (CpomOR1; replicate 2): 4 Spikes/s | Spikes/s (CpomOR1; replicate 3): 2 Spikes/s | Spikes/s (CpomOR1; replicate 4): -2 Spikes/s | Spikes/s (CpomOR1; replicate 5): 2 Spikes/s

O=Cc1ccccc1 [benzaldehyde]
LogP [1]: 1.452±0.242 | Solubility (M) [1]: 0,02 M

C=CCc1ccc(O)c(OC)c1 [eugenol]
LogP [1]: 2.403±0.236

CC(C=O)Cc1ccc2c(c1)OCO2 (stereo not shown) [helional]
LogP [1]: 1.982±0.343

CCCCCC(=O)OCCCC [butyl hexanoate]
Spikes/s (CpomOR1; replicate 1): 4 Spikes/s | Spikes/s (CpomOR1; replicate 2): -4 Spikes/s | Spikes/s (CpomOR1; replicate 3): 2 Spikes/s | Spikes/s (CpomOR1; replicate 4): 0 Spikes/s | Spikes/s (CpomOR1; replicate 5): -8 Spikes/s
